Laboratory results reported in publication PMC9179341, “Design of New Potent and Selective Thiophene-Based KV1.3 Inhibitors and Their Potential for Anticancer Activity” (Cancers, 2022).

System: Panc-1 cell line
Test: not given
Design: method as in PMID 29034212
Settings: Panc-1 cell line; read-out: EC50 decrease of cell survival; cited from earlier work

SMILES | EC50
O=c1ccc2c(OCCCCOc3ccc(CCC[P+](c4ccccc4)(c4ccccc4)c4ccccc4)cc3)c3ccoc3cc2o1 [PAPTP] | ~3 µM
O=C(NCCC[P+](c1ccccc1)(c1ccccc1)c1ccccc1)Oc1ccc(OCCCCOc2c3ccoc3cc3oc(=O)ccc23)cc1 [PCARBTP] | ~6 µM

Biological target: T1, KV1.3 (Homo sapiens, UniProt P22001)
T1 sequence (P22001 whole entry): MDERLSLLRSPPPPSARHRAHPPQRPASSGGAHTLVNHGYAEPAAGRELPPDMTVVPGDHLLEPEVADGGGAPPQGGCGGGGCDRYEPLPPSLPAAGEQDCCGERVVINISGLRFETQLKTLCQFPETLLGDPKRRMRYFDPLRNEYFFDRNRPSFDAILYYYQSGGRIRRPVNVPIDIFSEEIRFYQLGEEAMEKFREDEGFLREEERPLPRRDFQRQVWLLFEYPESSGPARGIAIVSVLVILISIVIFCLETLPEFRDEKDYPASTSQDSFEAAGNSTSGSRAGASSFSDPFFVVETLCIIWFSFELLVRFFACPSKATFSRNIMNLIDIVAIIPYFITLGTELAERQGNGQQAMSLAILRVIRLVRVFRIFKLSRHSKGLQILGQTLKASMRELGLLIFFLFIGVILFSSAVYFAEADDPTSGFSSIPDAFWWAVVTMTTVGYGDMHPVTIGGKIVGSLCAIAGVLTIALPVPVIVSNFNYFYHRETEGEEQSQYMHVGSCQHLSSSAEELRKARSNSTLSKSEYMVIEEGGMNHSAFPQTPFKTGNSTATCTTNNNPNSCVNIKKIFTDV
Test: KV1.3 inhibition, HiClamp on Xenopus laevis oocytes
Type: cell-based
Settings: Xenopus laevis oocytes (marked * in Table 2)
Method: (§1) Stage V–VI oocytes were isolated by partial ovariectomy from Xenopus laevis frogs (African clawed frogs). […] After anaesthetizing the frogs by a 15-min submersion in 0.1% tricaine methanesulfonate (amino benzoic acid ethyl ester; Merck, Kenilworth, NJ, USA), pH 7.0, the oocytes were collected. The isolated oocytes were then washed with a 1.5 mg/mL collagenase solution for 2 h to remove the follicle layer.
(§2) Ion channels (Kv1.x, Kv2.1, Kv4.2, Kv10.1) were expressed in Xenopus laevis oocytes by linearization of the plasmids and subsequent in vitro transcription using a commercial T7 or SP6 mMESSAGE mMACHINE transcription kit (Ambion, Carlsbad, California, USA). Defolliculated Xenopus oocytes were then injected with 20–50 nL of the cRNA at a concentration of 1 ng/nL using a micro-injector (Drummond Scientific1, Broomall, PA, USA). The oocytes were incubated in a solution containing (in mM): NaCl, 96; KCl, 2; CaCl2, 1.8; MgCl2, 2 and HEPES, 5 (pH 7.5), supplemented with 50 mg/L gentamycin sulfate and 90 mg/L theophylline.
(§3) Two-electrode voltage-clamp recordings were performed at room temperature (18–22 °C) using a Geneclamp 500 amplifier (Molecular Devices, San Jose, CA, USA) and pClamp data acquisition (Axon Instruments, Union City, CA, USA) and using an integrated digital TEVC amplifier controlled by HiClamp, an automated Voltage-Clamp Screening System (Multi Channel Systems MCS GmbH, Reutlingen, Germany). Whole-cell currents from oocytes were recorded 1–4 days after injection. The bath solution composition was ND96 (in mM): NaCl, 96; KCl, 2; CaCl2, 1.8; MgCl2, 2 and HEPES, 5 (pH 7.5). Voltage and current electrodes were filled with a 3 M solution of KCl in H2O. […] The elicited Kv1.x, Kv2.1, Kv4.2 and Kv10.1 currents were filtered at 0.5 kHz and sampled at 2 kHz using a four-pole low-pass Bessel filter. Leak subtraction was performed using a P/4 protocol.
(§4) For the electrophysiological analysis of the compounds, a number of protocols were applied from a holding potential of −90 mV. Currents for Kv1.x, Kv2.1, Kv4.2 and Kv10.1 were evoked by 1 s depolarizing pulses either to 0 mV or to a range of voltage steps between −80 mV and +40 mV. For the analysis of the data, only the inhibition at the 0 mV step was used. The concentration dependency of all compounds was assessed by measuring the current inhibition in the presence of increasing compound concentrations. […] From this stock solution, adequate dilutions with a maximum of 0.5% DMSO were made for testing.
(§5) All electrophysiological data (Figure S1) are presented as means ± S.E.M of n ≥ three independent experiments unless otherwise indicated. […] The Dunnett test and one-way ANOVA were performed to calculate the significance of the induced inhibition compared to the control.

IC50 | SMILES
1.65 µM | COc1cc(C)ccc1C(=O)NCC1(c2ccccc2)CCOCC1 [Compound 36]
2.92 µM | COc1cc(C)ccc1C(=O)NCC1(c2ccsc2)CCOCC1 [Compound 51]

Biological target: T1, KV1.3
Test: KV1.3 inhibition, manual voltage-clamp on Xenopus laevis oocytes
Type: cell-based
Settings: 10 μM; manual voltage-clamp on Xenopus laevis oocytes
Method: as §1, §2, §3, §4, §5

inhibition at 10 µM | SMILES
87 ± 4% | COc1ccccc1C(=O)NCC1(c2cccc(C)c2)CCOCC1 [Compound 29]
21 ± 6% | O=C(NCC1(c2ccsc2)CCOCC1)c1ccoc1 [Compound 46]
< 10% | COc1ccccc1C(=O)NCC1(c2nc(-c3ccccc3)cs2)CCOCC1 [Compound 40]
54 ± 10% | COc1ccccc1C(=O)NCC1(c2cscn2)CCOCC1 [Compound 42]
< 10% | COc1ccccc1C(=O)NCC1(c2ccc3c(c2)OCO3)CCCC1 [Compound 9]
< 10% | COc1ccc(C2(CNC(=O)c3ccccc3OC)CCCC2)cc1 [Compound 6]
< 10% | COc1ccc(C2(CNC(=O)c3ccccc3OC)CCCCC2)cc1 [Compound 16]
74 ± 9% | CCOc1ccccc1C(=O)NCC1(c2ccccc2)CCOCC1 [Compound 35]
60 ± 9% | COc1ccccc1C(=O)NCC1(c2ccc3c(c2)OCO3)CCOCC1 [Compound 26]
< 10% | COc1ccccc1C(=O)NCC1(c2ccccc2OC)CCCC1 [Compound 7]
88 ± 4% | COc1cccc(C2(CNC(=O)c3ccccc3OC)CCOCC2)c1 [Compound 28]
52 ± 8% | COc1ccccc1C(=O)NCC1(c2ccc(C)cc2)CCOCC1 [Compound 25]
27 ± 6% | O=C(NCC1(c2ccccc2)CCOCC1)c1ccoc1 [Compound 32]
18 ± 3% | COc1cccc(C2(CNC(=O)c3ccccc3OC)CCCC2)c1 [Compound 11]
11 ± 4% | O=C(NCC1(c2ccccc2)CCOCC1)c1ccsc1 [Compound 31]
12 ± 2% | COc1cccc(C2(CNC(=O)c3ccccc3OC)CCCCC2)c1 [Compound 19]
78 ± 4% | COc1ccccc1C(=O)NCC1(c2ccccc2OC)CCOCC1 [Compound 27]
27 ± 2% | COc1ccccc1C(=O)NCC1(c2cccc(C)c2)CCCCC1 [Compound 20]
< 10% | COc1ccccc1C(=O)NCC1(c2ccc(C(F)(F)F)cc2)CCOCC1 [Compound 22]
< 10% | COc1ccc(C2(CNC(=O)c3ccccc3OC)CCOCC2)cc1OC [Compound 23]
59 ± 5% | COc1ccc(C2(CNC(=O)c3ccccc3OC)CCOCC2)cc1 [Compound 24]

inhibition at 10 µM | SMILES
< 10% | COc1ccccc1C(=O)NCC1(c2ccccc2)CCCC1 [Compound 10]
30 ± 8% | COc1ccccc1C(=O)NCC1(c2ccsc2)CCCCC1 [Compound 21]
< 10% | COc1ccccc1C(=O)NCC1(c2ccc(C(F)(F)F)cc2)CCCCC1 [Compound 17]
41 ± 10% | COc1ccccc1C(=O)NCC1(c2csc(C)n2)CCOCC1 [Compound 41]
89 ± 4% | COc1cc(C)ccc1C(=O)NCC1(c2ccccc2)CCOCC1 [Compound 36]
< 10% | COc1cccc(OC)c1C(=O)NCC1(c2ccccc2)CCOCC1 [Compound 30]
< 10% | COc1ccc(C2(CNC(=O)c3ccccc3OC)CCCC2)cc1OC [Compound 8]
< 10% | COc1cccc(OC)c1C(=O)NCC1(c2ccsc2)CCOCC1 [Compound 45]
43 ± 1% | COc1ccccc1CC(=O)NCC1(c2ccsc2)CCOCC1 [Compound 49]
35 ± 8% | CCOc1ccccc1C(=O)NCC1(c2ccsc2)CCOCC1 [Compound 47]
47 ± 1% | COc1ccc(C)cc1C(=O)NCC1(c2ccccc2)CCOCC1 [Compound 34]
< 10% | COc1ccc(-c2csc(C3(CNC(=O)c4ccccc4OC)CCOCC3)n2)cc1 [Compound 39]
< 10% | COc1ccccc1C(=O)NCC1(c2ccccc2OC)CCCCC1 [Compound 18]
82 ± 1% | COc1cc(C)ccc1C(=O)NCC1(c2ccsc2)CCOCC1 [Compound 51]
16 ± 4% | COc1ccccc1C(=O)NCC1(c2cccc(C)c2)CCCC1 [Compound 12]
< 10% | COc1ccccc1C(=O)NCC1(c2csc3ccccc23)CCOCC1 [Compound 38]
47 ± 9% | COc1ccc(F)cc1C(=O)NCC1(c2ccsc2)CCOCC1 [Compound 50]
38 ± 5% | COc1ccccc1CC(=O)NCC1(c2ccccc2)CCOCC1 [Compound 33]
< 10% | COc1ccc(C2(CNC(=O)c3ccccc3OC)CCCCC2)cc1OC [Compound 15]
42 ± 6% | COc1ccc(C)cc1C(=O)NCC1(c2ccsc2)CCOCC1 [Compound 48]
57 ± 9% | COc1ccccc1C(=O)NCC1(c2cccs2)CCCC1 [Compound 13]

Same assay, conditions: KV1.3; manual voltage-clamp, Xenopus laevis oocytes

IC50 | SMILES
4.3 µM | COc1ccccc1C(=O)NCC1(c2cccc(C)c2)CCOCC1 [Compound 29]
5.75 µM | COc1cccc(C2(CNC(=O)c3ccccc3OC)CCOCC2)c1 [Compound 28]

System: Colo-357
Test: not given
Design: method as in PMID 29034212
Settings: read-out: EC50 cell death; cited from earlier work

SMILES | EC50
O=c1ccc2c(OCCCCOc3ccc(CCC[P+](c4ccccc4)(c4ccccc4)c4ccccc4)cc3)c3ccoc3cc2o1 [PAPTP] | 3.7 µM
O=C(NCCC[P+](c1ccccc1)(c1ccccc1)c1ccccc1)Oc1ccc(OCCCCOc2c3ccoc3cc3oc(=O)ccc23)cc1 [PCARBTP] | 2 µM
